Reference: patent publication US20100227307A1, “ERGOTHIONEINE AND/OR ITS DERIVATIVES AS A CELL PRESERVATIVE” (priority 2007, published 2010)

How the values were obtained:
[1] = tested on: mouse liver; details: cited from earlier work
[2] = tested on: Stallion named IKE's semen (sperm cells); test: Post-thaw motility of frozen stallion semen in five extenders (Sperm Vision analysis); type: cell-based; details: ergothioneine added to traditional semen extender compositions
Experimental: The resulting sperm pellet was then split 5 ways and resuspended with the five different extenders tested. DMSO and EQUIPRO® cryoguards were frozen right away. […] Semen was frozen using the ice cube freezer. Semen straws were thawed at 37° C. for 1 minute. Semen was diluted at one to ten in EQUIPRO® concentrate to analyze using sperm vision. All five extenders were measured for motility (total motility and forward progressive motility, FPM) using Sperm Vision® software, a high-resolution, rapid scan digital camera on a plain glass slide. Measurements were taken at 0 min post thaw, 30 min and 60 min post thaw.

[3] = tested on: liver tissue of rats; details: exogenous L-ergothioneine; cited from earlier work

C[N+](C)(C)[C@@H](Cc1c[nH]c(=S)[nH]1)C(=O)[O-] [ergothioneine, L-ergothioneine]
LPO formation [1]: inhibited LPO formation
decomposition of existing LPO [1]: enhanced the decomposition of existing LPO
sperm cell survival [2]: significant improvement
surviving cell motility [2]: significant improvement
lipid peroxidation by toxic compounds [3]: prevent lipid peroxidation
